Assay results: patent US20250340529A1, “Heterocyclic Compounds as Immunomodulators of PD-L1 Interactions” (Ascletis BioScience Co., Ltd, priority 2021, published 2025)

Experiments:
PD-1/PD-L1 = PD-1/PD-L1 (Homo sapiens (Human), UniProt Q9NZQ7); assay: PD-1/PD-L1 Homogeneous Time-Resolved Fluorescence (HTRF) binding assay; details: 3 nM PD1, 10 nM PD-L1, 25° C., PBS pH 7.4
Procedure: PD-1/PD-L1 Homogeneous Time-Resolved Fluorescence (HTRF) Binding Assay
The assays were conducted in a standard black 384-well polystyrene plate with a final volume of 20 μL. Inhibitors were first serially diluted in DMSO and then added to the plate wells before the addition of other reaction components. The final concentration of DMSO in the assay was 1%. The assays were carried out at 25° C. in the PBS buffer (pH 7.4) with 0.05% Tween-20 and 0.1% BSA. Recombinant human PD-L1 protein (19-238) with a Histag at the C-terminus was purchased from AcroBiosystems (PD1-H5229). Recombinant human PD-1 protein (25-167) with Fe tag at the C-terminus was also purchased from AcroBiosystems (PD1-H5257). PD-L1 and PD-1 proteins were diluted in the assay buffer and 10 μL was added to the plate well. Plates were centrifuged and proteins were preincubated with inhibitors for 40 minutes. The incubation was followed by the addition of 10 μL of HTRF detection buffer supplemented with Europium cryptate-labeled anti-human IgG (PerkinElmer-AD0212) specific for Fe and anti-His antibody conjugated to SureLight®-Allophycocyanin (APC, PerkinElmer-AD0059H). After centrifugation, the plate was incubated at 25° C. for 60 min. before reading on a PHERAstar FS plate reader (665 nm/620 nm ratio). Final concentrations in the assay were—3 nM PD1, 10 nM PD-L1, 1 nM europium anti-human IgG and 20 nM anti-His-Allophycocyanin. IC50 determination was performed by fitting the curve of percent control activity versus the log of the inhibitor concentration.

PD-L1/CHO-K1 cells = PD-L1/CHO-K1 cells (Homo sapiens (Human), UniProt Q9NZQ7); assay: PD-L1 internalization (FACS, PD-L1/CHO-K1 cells); type: cell-based; details: % activation of PD-L1 internalization = 1 − PD-L1 signal; 17 hours incubation
Procedure: Day 1. Seeding cells: Digest the PD-L1/CHO-K1 cells by trypsin in the flask, then counting the cell number and diluted to 1×10^5 cells/ml. Seeding cells to 6 well plate (Corning, #3516), 2 mL/well. The plates were incubated at 37° C., […] incubator for 24 hours.
Day 2. Preparing compounds and treated cells: Dilute GLC01-258 from 15 mM to 0.5 mM by using DMSO, and 15 mM compound were serial diluted from 15 mM˜15 nM by DMSO, Then 500 times dilute the compounds by using assay buffer. Prepare 0.2% DMSO in assay buffer used for Vehicle control and low control. Take out the plates, aspirated the medium and thrown away. Adding 2 mL of the diluted compounds, vehicle control and low control to corresponding wells. Then incubated the plates for 17 hours at 37° C., 5% CO2 incubator.
Day 3. Preparing samples for FACS: After 17 hours incubation, discarded medium and washed by the PBS. Cells in each well were Digested by trypsin. Centrifuge and discard the supernatant, then wash the cells by DPBS (Ca^2+, Mg^2+ free) for twice. 10 fold dilute the antibody (PE-conjugated mouse anti-human CD274) by DPBS, then adding the staining solution to compounds treated samples and vehicle control sample. The low control only add DPBS without antibody. Incubate the plates at room temperature for 20 minutes and protect from light. After 20 minutes, wash the samples by DPBS for twice. Then centrifuge and discard the supernatant. Resuspend cells by 300 uL DPBS and transfer the samples to 5 mL Polystryrene Round-Bottom Tube (Falcon, #352054), then tested by BD FACSCanto. […].
Set the PD-L1 signal of vehicle control as 100%, PD-L1 signal of Low control as 0%. Then calculate the compound treated samples' PD-L1 signal
0% PD-L1 signal: Low control which stained without anti-CD274
100% PD-L1 Signal: vehicle control which stained with anti-CD274
The % activation of PD-L1 Internalization=1−PD-L1 signal of compound.

PD-1/PD-L1, sequence (Q9NZQ7 19-238): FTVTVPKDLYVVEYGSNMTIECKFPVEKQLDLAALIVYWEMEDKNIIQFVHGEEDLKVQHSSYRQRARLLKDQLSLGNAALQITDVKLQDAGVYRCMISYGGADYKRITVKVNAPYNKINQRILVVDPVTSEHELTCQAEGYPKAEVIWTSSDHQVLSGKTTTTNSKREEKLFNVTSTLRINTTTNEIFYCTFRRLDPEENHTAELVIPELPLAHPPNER
PD-L1/CHO-K1 cells, sequence (Q9NZQ7 19-290): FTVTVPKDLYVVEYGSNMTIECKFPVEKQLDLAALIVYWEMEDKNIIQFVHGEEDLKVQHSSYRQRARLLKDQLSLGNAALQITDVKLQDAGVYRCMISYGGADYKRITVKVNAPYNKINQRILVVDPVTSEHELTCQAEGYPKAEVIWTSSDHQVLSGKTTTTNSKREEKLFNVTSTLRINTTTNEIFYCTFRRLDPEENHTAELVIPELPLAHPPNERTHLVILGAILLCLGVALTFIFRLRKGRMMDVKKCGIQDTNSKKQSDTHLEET

| IC50 (PD-1/PD-L1) | Internalization (PD-L1/CHO-K1 cells) | SMILES |
| --- | --- | --- |
| 5.48 nM | 5.70% | O=C(O)CCNCCCN1C(=O)COc2cc(-c3cccc(-c4cccc(-c5ccc6c(c5)OCC(=O)N6CCCNCCC(=O)O)c4Cl)c3Cl)ccc21 [Compound 480] |
| 7.46 nM | 22.80% | Cl.O=C1CC[C@@H](CN2C(=O)COc3cc(-c4cccc(-c5cccc(-c6ccc7c(c6)OCC(=O)N7C[C@@H]6CCCN6)c5Cl)c4Cl)ccc32)N1 [Compound 517] |
| 6.26 nM | 2.50% | O=C1CC[C@@H](CN2C(=O)COc3c2ccc(-c2cccc(-c4cccc(-c5ccc6c(c5F)OCC(=O)N6C[C@@H]5CCC(=O)N5)c4Cl)c2Cl)c3F)N1 [Compound 395] |
| 2.16 nM | 5.50% | O=C1CC[C@@H](CN2C(=O)CNc3cc(-c4cccc(-c5cccc(-c6ccc7c(c6)NCC(=O)N7C[C@@H]6CCC(=O)N6)c5Cl)c4Cl)ccc32)N1 [Compound 363] |
| 3.79 nM | 3.20% | O=C1CC(CN2C(=O)COc3cc(-c4cccc(-c5cccc(-c6ccc7c(c6)OCC(=O)N7CC6CNC(=O)C6)c5Cl)c4Cl)ccc32)CN1 (centres unmarked) [Compound 373] |
| 4.9 nM | 20.90% | O=C(O)CCNCCN1C(=O)COc2cc(-c3cccc(-c4cccc(-c5ccc6c(c5)OCC(=O)N6CCNCCC(=O)O)c4Cl)c3Cl)ccc21 [Compound 468] |
| 3.89 nM | 12.20% | O=C1CC[C@@H](CNCCN2C(=O)COc3cc(-c4cccc(-c5cccc(-c6ccc7c(c6)OCC(=O)N7CCNC[C@@H]6CCC(=O)N6)c5Cl)c4Cl)ccc32)N1 [Compound 449] |
| 7.78 nM | 3.10% | O=C(O)[C@H](CCO)NCCN1C(=O)COc2cc(-c3cccc(-c4cccc(-c5ccc6c(c5)OCC(=O)N6CCN[C@@H](CCO)C(=O)O)c4Cl)c3Cl)ccc21 [Compound 560] |
| 4.81 nM | 7.80% | C[C@@H](O)[C@H](NCCN1C(=O)COc2cc(-c3cccc(-c4cccc(-c5ccc6c(c5)OCC(=O)N6CCN[C@H](C(=O)O)[C@@H](C)O)c4Cl)c3Cl)ccc21)C(=O)O [Compound 545] |
| 5.24 nM | 3.30% | O=C1COc2cc(-c3cccc(-c4cccc(-c5ccc6c(c5)OCC(=O)N6CCN[C@@H](CO)C(=O)O)c4Cl)c3Cl)ccc2N1 [Compound 542] |
| 4.69 nM | 8.70% | O=C(O)C1CCN(CCN2C(=O)COc3cc(-c4cccc(-c5cccc(-c6ccc7c(c6)OCC(=O)N7CCN6CC[C@H](O)C6)c5Cl)c4Cl)ccc32)C1 (stereo partly drawn) [Compound 481, 1-(2-(7-(2,2′-dichloro-3′-(4-(2-((S)-3-hydroxypyrrolidin-1-yl)ethyl)-3-oxo-3,4-dihydro-2H-benzo[b][1,4]oxazin-7-yl)-[1,1′-biphenyl]-3-yl)-3-oxo-2,3-dihydro-4H-benzo[b][1,4]oxazin-4-yl)ethyl)pyrrolidine-3-carboxylic acid] |
| 3.23 nM | 31.50% | CC(CO)(NCCN1C(=O)COc2cc(-c3cccc(-c4cccc(-c5ccc6c(c5)OCC(=O)N6CCNC(C)(CO)C(=O)O)c4Cl)c3Cl)ccc21)C(=O)O (centres unmarked) [Compound 475] |
| 4.19 nM | 3.50% | O=C1COc2cc(-c3cccc(-c4cccc(-c5ccc6c(c5)OCC(=O)N6C[C@@H]5CCNC5)c4Cl)c3Cl)ccc2N1C[C@@H]1CCNC1 [Compound 503] |
| 5.33 nM | 20.30% | O=C(O)[C@H](CO)NCCN1C(=O)COc2c1ccc(-c1cccc(-c3cccc(-c4ccc5c(c4F)OCC(=O)N5CCN[C@@H](CO)C(=O)O)c3Cl)c1Cl)c2F [Compound 557] |
| 7.73 nM | 11.60% | O=C1COc2cc(-c3cccc(-c4cccc(-c5ccc6c(c5)OCC(=O)N6C[C@H]5NC6CCC5C6)c4Cl)c3Cl)ccc2N1C[C@H]1NC2CCC1C2 [Compound 539] |
| 2.64 nM | 3.10% | C[C@H](O)[C@@H](NCCN1C(=O)COc2cc(-c3cccc(-c4cccc(-c5ccc6c(c5)OCC(=O)N6CCN[C@@H](C(=O)O)[C@H](C)O)c4Cl)c3Cl)ccc21)C(=O)O [Compound 551] |
| 5.01 nM | 20.50% | O=C1COc2cc(-c3cccc(-c4cccc(-c5ccc6c(c5)OCC(=O)N6CCNCCO)c4Cl)c3Cl)ccc2N1CCNCCO [Compound 445] |
| 7.25 nM | 4.90% | O=C(O)[C@@H](CCO)NCCN1C(=O)COc2cc(-c3cccc(-c4cccc(-c5ccc6c(c5)OCC(=O)N6CCN[C@H](CCO)C(=O)O)c4Cl)c3Cl)ccc21 [Compound 552] |
| 1.98 nM | 2.40% | CN1CC(=O)N(C[C@@H]2CCC(=O)N2)c2ccc(-c3cccc(-c4cccc(-c5ccc6c(c5)N(C)CC(=O)N6C[C@@H]5CCC(=O)N5)c4Cl)c3Cl)cc21 [Compound 402] |
| 10.5 nM | 10.60% | O=C1COc2cc(-c3cccc(-c4cccc(-c5ccc6c(c5)OCC(=O)N6C[C@@H]5CC6(CC6)CN5)c4Cl)c3Cl)ccc2N1C[C@@H]1CC2(CC2)CN1 [Compound 540] |
|  | 9.40% | O=C(O)[C@@H](O)CNCCN1C(=O)COc2cc(-c3cccc(-c4cccc(-c5ccc6c(c5)OCC(=O)N6CCNC[C@H](O)C(=O)O)c4Cl)c3Cl)ccc21 [Compound 553] |
| 6.31 nM |  | CC(=O)NCCNCCN1C(=O)COc2cc(-c3cccc(-c4cccc(-c5ccc6c(c5)OCC(=O)N6C[C@@H]5CCC(=O)N5)c4Cl)c3Cl)ccc21 [Compound 489] |
| 4.46 nM |  | Cc1c(-c2ccc3c(c2)OCC(=O)N3CCN2C[C@H](O)C[C@H]2C(=O)O)cccc1-c1cccc(-c2ccc3c(c2)OCC(=O)N3CCN2C[C@H](O)C[C@H]2C(=O)O)c1C [Compound 514] |
| 1.75 nM |  | O=C1CC[C@@H](Cn2c(=O)cnc3cc(-c4cccc(-c5cccc(-c6ccc7c(c6)ncc(=O)n7C[C@@H]6CCC(=O)N6)c5Cl)c4Cl)ccc32)N1 [Compound 361] |
| 471 nM |  | O=C1CCCN1CCN1C(=O)COc2cc(-c3cccc(-c4cccc(-c5ccc6c(c5)OCC(=O)N6CCN5CCCC5=O)c4Cl)c3Cl)ccc21 [Compound 394] |
| 20.8 nM |  | O=C1COc2cc(-c3cccc(-c4cccc(-c5ccc6c(c5)OCC(=O)N6C[C@@H]5CCC(=O)N5)c4Cl)c3Cl)ccc2N1 [Compound 429, (S)-7-(2,2′-dichloro-3′-(3-oxo-3,4-dihydro-2H-benzo[b][1,4]oxazin-7-yl)-[1,1′-biphenyl]-3-yl)-4-((5-oxopyrrolidin-2-yl)methyl)-2H-benzo[b][1,4]oxazin-3(4H)-one] |
| 6.72 nM |  | O=C(O)[C@@H]1C[C@@H](O)CN1CCN1C(=O)COc2cc(-c3cccc(-c4cccc(-c5ccc6c(c5)OCC(=O)N6CCN5C[C@@H](O)C[C@H]5C(=O)O)c4Cl)c3Cl)ccc21 [Compound 482] |
|  | 4.80% | O=C(O)[C@H](CO)NCCN1C(=O)COc2cc(-c3cccc(-c4cccc(-c5ccc6c(c5)OCC(=O)N6CCN[C@@H](CO)C(=O)O)c4F)c3F)ccc21 [Compound 613, (2S,2'S)-2,2′-((((2,2′-difluoro-[1,1′-biphenyl]-3,3′-diyl)bis(3-oxo-2,3-dihydro-4H-benzo[b][1,4]oxazine-7,4-diyl))bis(ethane-2,1-diyl))bis(azanediyl))bis(3-hydroxypropanoic acid)] |
| 4.06 nM |  | CC(=O)NCCNCCN1C(=O)COc2cc(-c3cccc(-c4cccc(-c5ccc6c(c5)OCC(=O)N6CCNCCNC(C)=O)c4Cl)c3Cl)ccc21 [Compound 461] |
| 8.23 nM |  | O=C(O)C1CCCCN1CCN1C(=O)COc2cc(-c3cccc(-c4cccc(-c5ccc6c(c5)OCC(=O)N6CCN5CCCCC5C(=O)O)c4Cl)c3Cl)ccc21 (centres unmarked) [Compound 513] |
